# Where a SMILES comes first, the peptide text is derived from it. The star is where a group is joined. Ethynyl(2-Si(iPr)3) = CC(C)[Si](C#C*)(C(C)C)C(C)C
# What was measured:
# Format in all cases: physicochemical
# [1] = Solubility in water of EBX reagents
# [2] = Partition coefficient (LogP), octanol/water method
# Text: [24] Determined using the octanol/water method according to: J. A.Arnott, S. L.Planey, Expert Opin. Drug Discovery 2012, 7, 863–875.
# Calibration with 11a was achieved through the preparation of several samples of different concentrations and their analysis on RP HPLC. These analyses were repeated three times in order to obtain an average curve of calibration. The following linear regression was obtained: Y = 470.12 X + 284.02 and R = 0.9887, where Y is the absorption in mAUs -1 at 214 nm and X the concentration of 11a in mM.
# Figure S3. calibration curve of 11a.
# Calculation of Partition coefficient ( LogP)4
# 2.5 mg (4.0 µmol) 11a was dissolved in 1.7 mL octanol -H2O mixture (0.85 mL 1 -Octanol + 0.85 mL milli-Q H2O) in a 5 mL vial. In order to mix the layers, the vial was shaken on vertex for 1 min. Then the mixture was transferred to a separating funnel. The separating funnel was closed and left standing for 3 h to separate the organic and the H2O layer. Both layers were taken separately and submitted tonreverse phase HPLC. The concentration of both layers was determined by HPLC - […]
# Amount of 11a in 1-octanol = 2.41 mg/mL
# Amount of 11a in H2O = 0.09 mg/mL
# Partition coefficient (P) = amount of 11a in 1-octanol/ amount of 11a in H2O […]
# Following the same procedure for starting material 11: LogP = -1.53
# 4 J. R. Espinosa, C. R. Wand, C. Vega, E. Sanz, D. Frenkel, J. Chem. Phys. 2018, 149, 224501.
# (1 picture or pasted object on this page, not shown here)
# [3] = Retention time in RP-HPLC as qualitative measure of lipophilicity; settings: analytical RP-HPLC
# Experimental: For example, the retention time of peptide 11 shifted from 5.8 to 13.6 min for 11 a and 20.2 min for 11 b (See SI). The partition coefficient (LogP) of product 11 a was determined to be 1.53 compared with −1.43 for 11.[24] […]
# followed by dimethylformamide wash (4 x 3 mL). Fmoc groups were then removed by shaking the resin with 20% v/v piperidine in dimethylformamide at 400 rpm, over 5 minutes. This step was carried out twice. Next, washing steps were achieved with dimethylformamide (5 x 3 mL). Finally, resin was dried with dichloromethane (5 x 3 mL).
# Peptide cleavage and deprotection: Peptides were deprotected and cleaved from the resin under reducing conditions, by treatment with 2.5% v/v water and 2.5% v/v triisopropylsilane (TIPS) in neat trifluoroacetic acid (5 mL). The resulting mixture was shaken for 2 hours at 400 rpm, at room temperature. The resin was removed by filtration and peptides were precipitated in cold diethyl ether (20 mL), followed by a 2 hours incubation at -20 °C. Peptides were pelleted by centrifugation at 4000 rpm, at 4 °C, for 5 minutes. […]
# A. Fractions containing the desired peptide were lyophilized. The purity was assessed by analyzing a 10-20 mM peptide solution by RP-HPLC (HPLC gradient: 100% A to 100% B in 30 minutes. At the same time, low-resolution mass spectrometric measurements were also acquired. […]
# [4] = Cleavage of thioesters with hydroxylamine; settings: HPLC
# Text: The obtained thioalkynes constitute a new type of lipophilic compounds lacking the electrophilic carbonyl group present in natural palmitoylated peptides, which is required for their hydrolysis. In presence of trifluoroacetic acid (TFA), clean hydration to give thioesters was observed (Scheme 5 a). This hydration can be performed in a one pot protocol with silylated and alkylated alkynes on both small and larger peptides to give thioesters such as 11 aa–bb, 17 aa–bb, 18 aa and 23 aa–bb in 58–82 % yield. 11 bb, 17 bb and 23 bb are then natural palmitoylated products. […] Numerous enzymatic and chemical methods have been reported for the cleavage of palmitoyl groups on cysteine.[25] […] Nevertheless, treatment with a KF solution followed by hydroxylamine also allowed to cleave this thioester with 90 % conversion. Taken together, our work therefore gives access to lipophilic peptide derivatives modifiable/cleavable under different conditions, which can be exploited depending on the desired application.
# Cleavage of palmitoylthioester of Ac-Trp-Met-Asn-Ser-Thr-Gly-Phe-Thr-Lys-Val-Cys-Gly-Ala-NH2 (17bb) A 1.5 mL vial was charged with 17bb (0.5 mg, […],1.0 equiv.) 70 µL 1M NH2OH with a small magnetic bar. The NH2OH solution was freshly prepared in Milli Q water. Then the reaction mixture was stirred for 4 h at rt. […]
# Yield for 17 and disulfide quantitative (retention time 5.0). […]
# [5] = shake-flask 1-octanol/milli-Q H2O (0.85 mL + 0.85 mL), 2.5 mg, vortexed 1 min, left standing 3 h, both layers by RP-HPLC-UV 214 nm
compound,measurement,setting,value
C14H29-EBX-SO3M [4b],solubility in water,[1],450 mg/mL
same,solubility in water,[1]; Supporting Information,450 mg/mL
CC(=O)N[C@@H](C)C(=O)N[C@@H](CSC#C[Si](C(C)C)(C(C)C)C(C)C)C(=O)NCC(=O)N[C@@H](Cc1ccccc1)C(N)=O [11a] (Ac-AC(Ethynyl(2-Si(iPr)3))GF-NH2),logP,[2]; [5],1.53
same,partition coefficient (LogP),[2]; [5],1.43
same,Partition coefficient (P) = amount in 1-octanol / amount in H2O,"[2]; shake-flask 1-octanol/milli-Q H2O, HPLC-UV 214 nm",26.78
"CC[C@H](C)[C@H](NC(=O)[C@H](Cc1ccccc1)NC(=O)[C@H](CSC#C[Si](C(C)C)(C(C)C)C(C)C)NC(=O)[C@@H](NC(=O)[C@H](CCC(N)=O)NC(=O)[C@H](CSC#C[Si](C(C)C)(C(C)C)C(C)C)NC(=O)[C@H](Cc1c[nH]cn1)NC(=O)[C@H](Cc1ccccc1)NC(C)=O)C(C)C)C(=O)N[C@H](C(N)=O)[C@@H](C)O [24a, Alkynylated (Phe32-Thr40) Ac-Phe-His-Cys-Gln-Val-Cys-Phe-Ile-Thr-NH2] (Ac-FHC(Ethynyl(2-Si(iPr)3))QVC(Ethynyl(2-Si(iPr)3))FIT-NH2)",retention time (HPLC-MS of reaction mixture),"[3]; SI, HPLC gradient Method 1",19.7
K/Na-5-sulfonate TIPS-EBX-SO3M [4a],increase of solubility in water compared to TIPS-EBX (1),"[1]; 4a vs 1, water",more than fifty fold
same,solubility in water,[1],0.46 mg/mL
same,solubility in water,[1]; Supporting Information,460 mg/mL
"CC(=O)N[C@@H](C)C(=O)N[C@@H](CS)C(=O)NCC(=O)N[C@@H](Cc1ccccc1)C(N)=O [compound 11, Ac-Ala-Cys-Gly-Phe-NH2] (Ac-ACGF-NH2)",retention time in RP-HPLC,[3]; HPLC gradient Method 3 per SI,5.8 min
silylthioester of H-Ala-Cys-Ala-Phe-Lys-Asp-NH2 [18aa],cleavage of the thioester by hydroxylamine,"[4]; 1 M NH2OH in Milli Q water, rt, 4 h",reacts only very slowly
same,conversion in thioester cleavage with KF and hydroxylamine,"[4]; KF (28.7 equiv) and 1M NH2OH, 37 °C, 14 h",90%

# Source: publication PMC8456932, “Amphiphilic Iodine(III) Reagents for the Lipophilization of Peptides in Water” (Angewandte Chemie (International Ed. in English), 2021)
